For one series, the target named is nNOS (Rattus norvegicus, UniProt P29476). The series is described as follows: NOS inhibition assay (literature protocols), neuronal isoform. Format: biochemical. As to conditions: for potency (in words): comment on Table 2. The text has this: Compounds 3a (not shown, below), 4a, 3c, and 4c were synthesized compounds for purpose of illustration, and 4a, 3c and 4c have been tested using literature protocols. (See, e.g., example 51 of the aforementioned incorporated '790 patent, example 12 of co-pending application Ser. No. 13/250,554 filed Sep. 30, 2011, also incorporated herein by reference in its entirety and, respectively, the references cited therein.) The activities are shown in Table 2.

The target of a further series is iNOS (Mus musculus, UniProt P29477). As to the kind of experiment: NOS inhibition assay (literature protocols), inducible isoform. Type of series: biochemical. As to conditions: for selectivity i/n: ratio KI iNOS / KI nNOS.
A further series deals with eNOS (Bos taurus, UniProt P29473). As to the kind of experiment: NOS inhibition assay (literature protocols), endothelial isoform. As to conditions: for selectivity e/n: ratio KI eNOS / KI nNOS. Type of series: biochemical.
The conditions of series [1]: pKa of the free azole ring of the side chain; cited from earlier work.

This is an account of results in US8618143B1, “Selective neuronal nitric oxide synthase inhibitors with azole substituents” (Northwestern University, priority 2010, dated 2013).

A word on the Ki: it is the equilibrium dissociation constant of an inhibitor or competing ligand from its target. As to `Cc1cc(N)nc(C[C@@H]2CNC[C@@H]2OCCNCCc2nccs2)c1` [Compound 3c], on nNOS, the Ki worked out at 0.716 µM and the “potency (in words)” value is listed as “highly potent”. Also, on iNOS, the affinity corresponds to a Ki of 23.1 µM and the selectivity i/n is listed as 32.3. Moreover, at eNOS, the Ki was found to be 0.058 µM and the selectivity e/n is 0.081.

`Cc1cc(N)nc(C[C@H]2CNC[C@H]2OCCNCCc2c[nH]cn2)c1` [Compound 4a]: on nNOS, the Ki was 1.18 µM and the “potency (in words)” value is listed as “moderate potency”. Further, at iNOS, the Ki is 15 µM and the selectivity i/n was 12.7. Moreover, on eNOS, the Ki worked out at 4.23 µM and the selectivity e/n is reported as 3.58.

Regarding `Cc1cc(N)nc(C[C@H]2CNC[C@H]2OCCNCCc2nccs2)c1` [Compound 4c], at nNOS, the affinity, expressed as Ki, was 0.044 µM and the “potency (in words)” value is recorded as “moderate potency”. Further, on iNOS, the affinity, expressed as Ki, was 34.4 µM and the selectivity i/n is 782. In addition, on eNOS, the affinity, expressed as Ki, was 9.81 µM and the selectivity e/n is on record as 223.

Take `NCCc1c[nH]cn1` [Compound 5a]: in series [1], the “approximate ring pKa” value is 7.1.

In the case of `NCCc1nccs1` [Compound 5c], the “approximate ring pKa” value in series [1] is recorded as 2.5.

Consider `NCCn1ccnc1` [Compound 5e], for which, in series [1], the “approximate ring pKa” value was over 7.1.

For `Cn1cncc1CCN` [Compound 5f], in series [1], the “approximate ring pKa” value was over 7.1.

`Cn1cnc(CCN)c1` [Compound 5g]: the “approximate ring pKa” value in series [1] is over 7.1.
